According to paper PMC5992992, “Functional Consequences of the Postnatal Switch From Neonatal to Mutant Adult Glycine Receptor α1 Subunits in the Shaky Mouse Model of Startle Disease” (Frontiers in Molecular Neuroscience, 2018):

Tests used:
[1] = molecular target: T1, glycine receptor α1 subunit (GlyR α1) (Mus musculus, UniProt Q64018); assay: whole-cell patch-clamp dose-response of bath-applied glycine in brain stem slices
T1 construct: gene Glra1; native GlyRs in hypoglossal motoneurons of brain stem slices (Glra1+/+, P18-24); with GlyR β subunit (Glrb)

[2] = molecular target: T2, glycine receptor α1 subunit (GlyR α1 Q177K, shaky) (Mus musculus, UniProt Q64018, Q205K); assay: as above
T2 construct: gene Glra1; native GlyRs in hypoglossal motoneurons of brain stem slices (Glra1sh/sh, P18-24); with GlyR β subunit (Glrb)

Q: Which results are given for `NCC(=O)O` [glycine]?
A: EC50 [1]: 277 µM; EC50 [2]: 384 µM
